Assay results reported in patent EP0035412A1, “Amidotetrazole compounds and processes for their preparation” (GLAXO GROUP LIMITED, priority 1980, dated 1981).

Legend:
Format in all cases: in vivo
[1] = tested on: rats with adjuvant arthritis; experiment: Freund adjuvant arthritis test (anti-inflammatory activity); settings: arthritic score versus first score, suspended in gum acacia
Protocol: The anti-inflammatory activity was determined by the Freund adjuvant arthritis test (Pearson, C.M. Proc. Soc. Exp. Biol. Med 91, 95 1956) and analgesic activity was determined by applying an increasing pressure to the inflamed paw (Randall, L.O. Selitto, J.J., Arch. Int. Pharmacodyn, 111, 409 1957) and recording pain threshold.
The anti-inflammatory activity of the compounds was determined in rats with adjuvant arthritis (Pearson, C.M. Prod. Soc. Exp. Biol. Med., 91, 95, 1956) induced by intradermal,injection into the tail of 0.1 ml of a fine suspension of Mycobacterium butyricum in liquid paraffin (6 mg.ml^-1).
After 14 days, animals were chosen on the basis of their arthritic score and test compounds, suspended in gum acacia, were then orally administered once a day for 14 days. At the end of this period, animals were scored again and percentage inhibition versus first score was calculated. Comparisons with controls were performed by the Dunnett test. The following results were obtained for the compounds of the Examples: […]

[2] = Toxicity (oral LD50); settings: in vivo, po; rat, orally
Protocol: (§1) The compounds are in general non-toxic at therapeutically active doses. For example, the compound of Example 1 has an LD50 value in the rat in excess of 3000 mg.kg ^-1 orally.

[3] = tested on: rat; experiment: Toxicity (oral LD50); settings: result in words
Protocol: as §1

[4] = oral dose 50.0 mg.kg^-1 once a day for 14 days

## COc1ccc2c(c1)c(CC(=O)Nc1nnnn1-c1ccc([N+](=O)[O-])cc1)c(C)n2C(=O)c1ccc(Cl)cc1 [Example 3, 1-(4-Nitrophenyl)-5-[1-(4-chlorobenzoyl)-5-methoxy-2-methylindol-3-ylacetamido] tetrazole]
[1]; oral dose 10.0 mg.kg^-1 once a day for 14 days
  % Inhibition: 47.7%

## COc1ccc2c(c1)c(CC(=O)Nc1nnnn1-c1ccc(Cl)c(Cl)c1)c(C)n2C(=O)c1ccc(Cl)cc1 [Example 2, 1-(3,4-Dichlorophenyl)-5-[1-(4-chlorobenzoyl)-5-methoxy-2-methylindol-3-ylacetamido]tetrazole]
[1]; [4]
  % Inhibition: 40.3%

## COc1ccc2c(c1)c(CC(=O)Nc1nnnn1-c1ccccc1)c(C)n2C(=O)c1ccc(Cl)cc1 [Example 1, 1-Phenyl-5-[1-(4-chlorobenzoyl)-5-methoxy-2-methylindol-3-ylacetamido]tetrazole]
[2]
  LD50: > 3000 mg/kg
[3]
  therapeutic index: particularly advantageous
[1]; oral dose 6.25 mg.kg^-1 once a day for 14 days
  % Inhibition: 59%

## COc1ccc2c(c1)c(CC(=O)Nc1nnnn1-c1ccc(N)cc1)c(C)n2C(=O)c1ccc(Cl)cc1 [Example 4]
[1]; [4]
  % Inhibition: 44.8%
